Here are results for two molecules from patent publication US20230151049A1, “Compounds Useful in HIV Therapy” (priority 2020, published 2023).

Like-named read-outs stand apart in the source and are kept apart here.

A short description of the data set: in vivo. Particulars: for concentration at 1 day: day 1; for concentration at 7 day: day 7; for concentration at 14 day: day 14. In a few lines: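 Three male Wistar Han rats (200-250 g), not fasted, received a single intramuscular gastrocnemius injection of prodrug suspension at 20 mg/kg EFdA equivalent. Tail-vein blood was taken into NaF/Na2EDTA, mixed 1:1 with 100 mM ammonium acetate pH 4, frozen, and analysed by LC-MS/MS.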

Setting [1] is: male, Wistar Han, rat, in vivo, single IM Example 39A 58 mg/kg, read-out: Mean concentration of Example 39A.
The mark [2] stands for this setting: day 63, single IM Example 11A 20 mg/kg equivalent of EFdA.
The mark [3] stands for this setting: day 70, single IM Example 11A 20 mg/kg equivalent of EFdA.
Setting [4] is: day 77, single IM Example 11A 20 mg/kg equivalent of EFdA.
The mark [5] stands for this setting: day 84, single IM Example 11A 20 mg/kg equivalent of EFdA.
Setting [6] is: day 91, single IM Example 11A 20 mg/kg equivalent of EFdA.
The mark [7] stands for this setting: male, Wistar Han, rat, whole blood, intramuscular, single IM Example 11A 20 mg/kg equivalent of EFdA, read-out: Mean concentration of Example 11A.

For `C#C[C@]1(COP(=O)(N[C@@H](Cc2cc(F)cc(F)c2)C(=O)OCCCCCCCCCCCCCCCC)Oc2ccccc2)O[C@@H](n2cnc3c(N)nc(F)nc32)C[C@@H]1O` (single isomer, unassigned) [Example 39A], the “Mean concentration of EFdA” value is reported as “BQL (BQL = below quantification limit, 0.3 ng/mL for both)” (day 28, single IM Example 39A 58 mg/kg); “BQL (BQL = below quantification limit, 0.3 ng/mL for both)” (day 35, single IM Example 39A 58 mg/kg); “BQL (BQL = below quantification limit, 0.3 ng/mL for both)” (day 42, single IM Example 39A 58 mg/kg); “BQL (BQL = below quantification limit, 0.3 ng/mL for both)” (day 49, single IM Example 39A 58 mg/kg); “BQL (BQL = below quantification limit, 0.3 ng/mL for both)” (day 56, single IM Example 39A 58 mg/kg); “BQL (BQL = below quantification limit, 0.3 ng/mL for both)” (day 63, single IM Example 39A 58 mg/kg). In addition, the “Mean concentration of EFdA” value is, setting by setting: (day 70, single IM Example 39A 58 mg/kg) “BQL (BQL = below quantification limit, 0.3 ng/mL for both)”; (day 77, single IM Example 39A 58 mg/kg) “BQL (BQL = below quantification limit, 0.3 ng/mL for both)”; (day 84, single IM Example 39A 58 mg/kg) “BQL (BQL = below quantification limit, 0.3 ng/mL for both)”. The concentration at 1 day under setting [1] came to 17 ng/mL. For the same molecule, the concentration at 7 day under setting [1] is 13.2 ng/mL. In addition, the concentration at 14 day under setting [1] amounted to 6.43 ng/mL. Besides, the concentration at 21 day (male, Wistar Han, rat, in vivo, day 21, single IM Example 39A 58 mg/kg, read-out: Mean concentration of Example 39A) was 8.77 ng/mL. Besides, the concentration at 28 day (male, Wistar Han, rat, in vivo, day 28, single IM Example 39A 58 mg/kg, read-out: Mean concentration of Example 39A) was 7.98 ng/mL. In addition, the concentration at 35 day (male, Wistar Han, rat, in vivo, day 35, single IM Example 39A 58 mg/kg, read-out: Mean concentration of Example 39A) came to 3.56 ng/mL. In addition, the concentration at 42 day (male, Wistar Han, rat, in vivo, day 42, single IM Example 39A 58 mg/kg, read-out: Mean concentration of Example 39A) was 2.61 ng/mL. In addition, the concentration at 49 day (male, Wistar Han, rat, in vivo, day 49, single IM Example 39A 58 mg/kg, read-out: Mean concentration of Example 39A) was determined as 2.45 ng/mL. Moreover, the concentration at 56 day (male, Wistar Han, rat, in vivo, day 56, single IM Example 39A 58 mg/kg, read-out: Mean concentration of Example 39A) was found to be 3.42 ng/mL. Besides, the concentration at 63 day (male, Wistar Han, rat, in vivo, day 63, single IM Example 39A 58 mg/kg, read-out: Mean concentration of Example 39A) worked out at 2.7 ng/mL. For the same molecule, the concentration at 70 day (male, Wistar Han, rat, in vivo, day 70, single IM Example 39A 58 mg/kg, read-out: Mean concentration of Example 39A) worked out at 1.68 ng/mL. Moreover, under “male, Wistar Han, rat, in vivo, day 77, single IM Example 39A 58 mg/kg, read-out: Mean concentration of Example 39A”, the concentration at 77 day worked out at 1.18 ng/mL. Further, for the setting “male, Wistar Han, rat, in vivo, day 84, single IM Example 39A 58 mg/kg, read-out: Mean concentration of Example 39A”, the concentration at 84 day stood at 1.39 ng/mL.
For `C#C[C@]1(COP(=O)(N[C@@H](Cc2ccccc2)C(=O)OCCCCCCCCCCCC)OCC(=O)OCCCCCCCCCCCC)O[C@@H](n2cnc3c(N)nc(F)nc32)C[C@@H]1O` (single isomer, unassigned) [Example 11A], the “Mean concentration of EFdA” value is, setting by setting: (day 21, single IM Example 11A 20 mg/kg equivalent of EFdA) “BQL (BQL = below quantification limit, 0.3-0.5 ng/mL for Example 11A and 0.1-0.3 ng/mL for EFdA)”; (day 28, single IM Example 11A 20 mg/kg equivalent of EFdA) “BQL (BQL = below quantification limit, 0.3-0.5 ng/mL for Example 11A and 0.1-0.3 ng/mL for EFdA)”; (day 35, single IM Example 11A 20 mg/kg equivalent of EFdA) “BQL (BQL = below quantification limit, 0.3-0.5 ng/mL for Example 11A and 0.1-0.3 ng/mL for EFdA)”; (day 42, single IM Example 11A 20 mg/kg equivalent of EFdA) “BQL (BQL = below quantification limit, 0.3-0.5 ng/mL for Example 11A and 0.1-0.3 ng/mL for EFdA)”; (day 49, single IM Example 11A 20 mg/kg equivalent of EFdA) “BQL (BQL = below quantification limit, 0.3-0.5 ng/mL for Example 11A and 0.1-0.3 ng/mL for EFdA)”; (day 56, single IM Example 11A 20 mg/kg equivalent of EFdA) “BQL (BQL = below quantification limit, 0.3-0.5 ng/mL for Example 11A and 0.1-0.3 ng/mL for EFdA)”. For the same molecule, the “Mean concentration of EFdA” value was “BQL (BQL = below quantification limit, 0.3-0.5 ng/mL for Example 11A and 0.1-0.3 ng/mL for EFdA)” under setting [2]; “BQL (BQL = below quantification limit, 0.3-0.5 ng/mL for Example 11A and 0.1-0.3 ng/mL for EFdA)” under setting [3]; “BQL (BQL = below quantification limit, 0.3-0.5 ng/mL for Example 11A and 0.1-0.3 ng/mL for EFdA)” under setting [4]; “BQL (BQL = below quantification limit, 0.3-0.5 ng/mL for Example 11A and 0.1-0.3 ng/mL for EFdA)” under setting [5]; “BQL (BQL = below quantification limit, 0.3-0.5 ng/mL for Example 11A and 0.1-0.3 ng/mL for EFdA)” under setting [6]. Also, the “Mean concentration of Example 11A” value runs as follows: under setting [2], “BQL (BQL = below quantification limit, 0.3-0.5 ng/mL for Example 11A and 0.1-0.3 ng/mL for EFdA)”; under setting [3], “BQL (BQL = below quantification limit, 0.3-0.5 ng/mL for Example 11A and 0.1-0.3 ng/mL for EFdA)”; under setting [4], “BQL (BQL = below quantification limit, 0.3-0.5 ng/mL for Example 11A and 0.1-0.3 ng/mL for EFdA)”; under setting [5], “BQL (BQL = below quantification limit, 0.3-0.5 ng/mL for Example 11A and 0.1-0.3 ng/mL for EFdA)”; under setting [6], “BQL (BQL = below quantification limit, 0.3-0.5 ng/mL for Example 11A and 0.1-0.3 ng/mL for EFdA)”. Also, under setting [7], the concentration at 1 day was 207 ng/mL. Besides, the concentration at 7 day under setting [7] came out at 6.93 ng/mL. Further, the concentration at 14 day under setting [7] worked out at 0.991 ng/mL. Besides, the concentration at 21 day (male, Wistar Han, rat, whole blood, intramuscular, day 21, single IM Example 11A 20 mg/kg equivalent of EFdA, read-out: Mean concentration of Example 11A) came to 2.68 ng/mL. The concentration at 28 day (male, Wistar Han, rat, whole blood, intramuscular, day 28, single IM Example 11A 20 mg/kg equivalent of EFdA, read-out: Mean concentration of Example 11A) was 2 ng/mL. For the same molecule, the concentration at 35 day (male, Wistar Han, rat, whole blood, intramuscular, day 35, single IM Example 11A 20 mg/kg equivalent of EFdA, read-out: Mean concentration of Example 11A) came out at 1.35 ng/mL. Under “male, Wistar Han, rat, whole blood, intramuscular, day 42, single IM Example 11A 20 mg/kg equivalent of EFdA, read-out: Mean concentration of Example 11A”, the concentration at 42 day came out at 1.03 ng/mL. For the same molecule, the concentration at 49 day (male, Wistar Han, rat, whole blood, intramuscular, day 49, single IM Example 11A 20 mg/kg equivalent of EFdA, read-out: Mean concentration of Example 11A) came out at 0.929 ng/mL. Besides, the concentration at 56 day (male, Wistar Han, rat, whole blood, intramuscular, day 56, single IM Example 11A 20 mg/kg equivalent of EFdA, read-out: Mean concentration of Example 11A) was found to be 0.95 ng/mL.
